According to patent publication US12456543B2, “Enzymes” (UNIVERSITY COURT OF THE UNIVERSITY OF ST ANDREWS, priority 2018, dated 2025):

Key:
[1] = Halogenase activity of Dsg205 and Dsg701 against 600 member compound library, LC-MSMS assay; assay type: biochemical; settings: substrate of Dsg205/Dsg701, enzyme not specified
Dsg407 = test: Substrates accepted by Dsg407; settings: purified Dsg407, NaBr or NaI, pH 7.2
[2] = test system: tryptophan 7-halogenase RebH; settings: natural substrate tryptophan; based on product production; cited from earlier work
[3] = test system: tryptophan 5-halogenase PyrH; settings: natural substrate tryptophan; based on product production; cited from earlier work

| Structure (SMILES) | accepted as substrate by Dsg407 (Dsg407) | also measured |
| --- | --- | --- |
| Nc1cccc2cccnc12 [8-quinolamine] |  | conversion of substrate, estimated [1]: ~75% |
| N[C@H](Cc1c[nH]c2ccccc12)C(=O)O [D-tryptophan] | accepts |  |
| c1cc2cc[nH]c2cn1 [Dsg 6-azaindole, 6-azaindole] | also a substrate of Dsg407 |  |
| N[C@@H](Cc1c[nH]c2ccccc12)C(=O)O [L-tryptophan] | not |  |
| N[C@@H](Cc1c[nH]c2ccccc12)C(=O)O [tryptophan] |  | Km [2]: 18.7 ± 1.3 µM; Kcat [3]: 0.0417 ± 0.0067 s⁻¹ |
